Reference: patent US7105553B2, “Thiazolyl amide derivatives” (Bayer Aktiengesellschaft, priority 1999, dated 2006)
Like-named read-outs stand apart in the source and are kept apart here.

Key:
HSV-1 F = experiment: anti-HSV screening test (cytopathogenic effect, fluorescein diacetate read-out), HSV-1 F on Vero cells; assay type: cell-based; conditions: read-out: IC50 HSV-1 F/Vero
Procedure: (§1) HSV (HSV-1 Walki, HSV-1F or HSV-2G) was cultivated on Vero cells (ATCC CCL-81) under the following conditions: The cells were grown in M199 medium (5% foetal calf serum, 2 mM glutamine, 100 IU/ml penicillin, 100 μg/ml streptomycin) in cell culture bottles at 37° C. and 5% CO2. The cells were splitted twice per week, in each case 1:4. For the infection, the medium was removed, the cells were washed with Hank's solution, detached using 0.05% trypsin, 0.02% EDTA (Seromed L2143) and incubated at a density of 4×10^5 cells per ml under the abovementioned conditions for 24 hours. The medium was then removed and the virus solution was added at an m.o.i of <0.05 in a volume of 2 ml per 175 cm^2 of surface. The medium was incubated under the conditions mentioned for one hour and then made up to a volume of 50 ml per 175 cm^2 bottle. […] The virus was released by freezing (−80° C.) and thawing (37° C.) the cultures twice. Cell debris was removed by centrifugation (300 g, 10 min, 4° C.) and the supernatant was frozen down in aliquots at −80° C.
(§2) The anti-HSV action was determined in a screening test system in 96-well microtitre plates using various cell lines of neuronal, lymphoid and epithelial origin, such as, for example, Vero (kidney cell line of the green monkey), MEF (murine embryonal fibroblasts), HELF (humane embryonal fibroblasts), NT2 (humane neuronal cell line) or Jurkat (humane lymphoid T-cell line).
(§3) The substances (50 mM), dissolved in DMSO (dimethyl sulphoxide), are examined on microtitre plates (for example 96-well MTP) in final concentrations of 250-0.5 μM (micromolar) in two replications (4 substances/plate). In the case of potent substances, the dilutions are continued for several plates up to 0.5 pM (picomolar). Also examined are toxic and cytostatic effects of the substances. After an appropriate dilution of the substances (1:2) on the microtitre plate in medium, a suspension of cells (1×10^4 cells per well) such as, for example, of Vero cells in M199 (medium 199) with 5% foetal calf serum, 2 mM glutamine and optionally 100 IU/ml penicillin and 100 μg/ml streptomycin or of MEF cells in EMEM (Eagle's Minimum Essential Medium) with 10% foetal calf serum, 2 mM glutamine and optionally 100 IU/ml penicillin and 100 μg/ml streptomycin, or of HELF cells in EMEM with 10% foetal calf serum, 2 mM glutamine and optionally 100 IU/ml penicillin and 100 μg/ml streptomycin, or of NT2- and Jurkat cells in DMEM ([…] glucose plus pyridoxin) with 10% foetal calf serum, 2 mM glutamine, 1 mM sodium pyruvate, non-essential amino acids and optionally 100 IU/ml penicillin and 100 μg/ml streptomycin is added to each well and the cells in the relevant wells are infected with an appropriate amount of virus (HSV-1 F or HSV-2 G having an m.o.i (multiplicity of infection) of 0.0025 for HELF, Vero and MEF cells and an m.o.i of 0.1 for NT2 and Jurkat cells). The plates are then incubated at 37° C. in a CO2 incubator (5% CO2) for several days. […] The plates are initially evaluated visually using a microscope and then analysed using a fluorescent dye. To this end, the cell supernatant of all wells of the MTP is aspirated and the wells are filled with 200 μl of PBS wash solution. The PBS is then aspirated and all the wells are filled with 200 μl of fluorescent dye solution (fluorescein diacetate, 10 μg/ml in PBS). After an incubation time of 30-90 min, the test plates are read in a fluorescence detector at an excitation wavelength of 485 nm and an emission wavelength of 538 nm.

HSV-2 G = experiment: anti-HSV screening test (cytopathogenic effect, fluorescein diacetate read-out), HSV-2 G on Vero cells; assay type: cell-based; conditions: read-out: IC50 HSV-2 G/Vero
Procedure: as §1, §2, §3

HSV-2 = experiment: in-vivo action: survival of intranasally HSV-infected mice; parameters: species or system mice (BALB/cABom); conditions: Human alphaherpesvirus 2; HSV-2, intranasal infection 5×10^4 Pfu, treatment 3 times per day for 5 days from 6 hours after infection; read-out: ED50 (50% of the animals survive at this dose)
Procedure: 6 week-old female mice, BALB/cABom strain were obtained from a commercial breeder (Bomholtgard Breeding and Research Centre Ltd.).
The animals were anaesthetized with diethyl ether (Merck) in a sealed glass vessel. 50 μl of a dilution of the virus stock (infection dose 5×10^4 Pfu) were introduced into the nose of the anaesthetized animals using an Eppendorf pipette. In 90-100% of the animals, this infection dose causes death by a generalized infection with prominent respiratory and central-nervous symptoms on average after 5 to 8 days.
6 hours after the infection, the animals were treated with doses of 0.1-100 mg/kg of body mass, 3 times per day, at 7 a.m., 2 p.m. and 7 p.m., for a period of 5 days. The substances were pre-dissolved in DMSO and resuspended in tylose/PBS (Hoechst) (final concentration 1.5% DMSO, 0.5% tylose in PBS).
After the last administration, the animals were monitored further and the time of death was determined.

[1] = Human alphaherpesvirus 1, Vero cells infected with HSV-1 F, m.o.i. 0.0025, half-maximal fluorescence intensity vs non-infected cell control
[2] = Human alphaherpesvirus 2, Vero cells infected with HSV-2 G, m.o.i. 0.0025, half-maximal fluorescence intensity vs non-infected cell control

Row | SMILES | melting point [°C] | also measured
1 | Cc1nc(N(C)C(=O)Cc2ccc(-c3ncccc3C(F)(F)F)cc2)sc1S(N)(=O)=O | 221 | 
2 | Cc1nc(N(C)C(=O)Cc2ccc(-c3ncccc3F)cc2)sc1S(N)(=O)=O | 218 | 
3 | Cc1nc(N(C)C(=O)Cc2ccc(-c3ccccc3C(F)(F)F)cc2)sc1S(=O)(=O)NCCNC(=O)OC(C)(C)C | 156 | 
4 | COCCCN(C(=O)Cc1ccc(-c2ccccc2)cc1)c1nc(C)c(S(N)(=O)=O)s1 | 148 | 
5 | CCOc1ccc(CC(=O)N(C)c2nc(C)c(S(=O)(=O)NC)s2)cc1 | 157 | 
6 | COc1ccc(F)cc1-c1ccc(CC(=O)N(CC2CCCO2)c2nc(C)c(S(N)(=O)=O)s2)cc1 (stereo not drawn) | 79 | 
7 | Cc1nc(N(C)C(=O)Cc2ccc(-c3ccncc3F)cc2)sc1S(N)(=O)=O | 223 | 
8 | Cc1nc(N(C)C(=O)Cc2ccc(-c3ccccc3)cc2F)sc1S(N)(=O)=O | 130 | 
9 | Cc1nc(N(C)C(=O)Cc2ccc(-c3ccccn3)cc2)sc1S(=O)(=O)NCCO[Si](C)(C)C(C)(C)C | 130 | 
10 | Cc1nc(N(C)C(=O)Cc2ccc(-c3ccccn3)cc2)sc1S(=O)(=O)NCCO | 175 | 
11 | CCOCCOCCOCCN(C(=O)Cc1ccc(-c2ccccc2)cc1)c1nc(C)c(S(N)(=O)=O)s1 | 94 | 
12 | CNS(=O)(=O)c1sc(N(CCNC(=O)OC(C)(C)C)C(=O)Cc2ccc(-c3ccccc3)cc2)nc1C | 188 | 
13 | CCN(C(=O)Cc1ccc(-c2ccccc2)cc1)c1nc(C)c(S(=O)(=O)NCC(F)(F)F)s1 | 152 | 
14 | CCOc1ccc(CC(=O)N(CCOC)c2nc(C)c(S(N)(=O)=O)s2)cc1 | 165 | 
15 | CCOc1ccc(CC(=O)N(C)c2nc(C)c(S(N)(=O)=O)s2)cc1 | 168 | 
16 | Cc1nc(N(C)C(=O)Cc2ccc(-c3ccccc3)cc2)sc1S(=O)(=O)NCCNC(=O)OC(C)(C)C | 150 | 
17 | Cc1nc(N(Cc2ccccc2)C(=O)Cc2ccc(-c3ccccc3)cc2)sc1S(N)(=O)=O | 154 | 
18 | Cc1nc(N(CC2CCCO2)C(=O)Cc2ccc(-c3ccccc3)cc2)sc1S(N)(=O)=O (stereo not drawn) | 159 | 
19 | CCOc1ccc(CC(=O)N(C)c2nc(C)c(S(=O)(=O)N(C)C)s2)cc1 [Example 14] | 154 | IC50 (HSV-1 F; [1]): 100 nM; IC50 (HSV-2 G; [2]): 750 nM
20 | CNS(=O)(=O)c1sc(N(CCN2CCCC2=O)C(=O)Cc2ccc(-c3ccccc3)cc2)nc1C [Example 23] | 156 | IC50 (HSV-1 F; [1]): 30 nM; IC50 (HSV-2 G; [2]): 100 nM
21 | Cc1nc(N(C)C(=O)Cc2ccc(-c3ccccn3)cc2)sc1S(N)(=O)=O [Example 38, N-[5-(Aminosulphonyl)-4-methyl-1,3-thiazol-2-yl]-N-methyl-2-[4-(2-pyridinyl)phenyl]acetamide] |  | IC50 (HSV-1 F; [1]): 50 nM; IC50 (HSV-2 G; [2]): 16 nM
22 | Cc1nc(N(C)C(=O)Cc2ccc(-c3ccccc3F)cc2)sc1S(N)(=O)=O [Example 57, N-[5-(Aminosulphonyl)-4-methyl-1,3-thiazol-2-yl]-2-(2′-fluoro[1,1′-biphenyl]-4-yl)-N-methylacetamide] |  | IC50 (HSV-1 F; Human alphaherpesvirus 1, Vero): < 10 nM; IC50 (HSV-2 G; Human alphaherpesvirus 2, Vero): < 10 nM; ED50 (HSV-2): ~0.7 mg/kg
23 | Cc1nc(N(C)C(=O)Cc2ccc(-c3cc(F)ccc3F)cc2)sc1S(N)(=O)=O [Example 87, N-[5-(aminosulphonyl)-4-methyl-1,3-thiazol-2-yl]-2-(2′,5′-difluoro-1,1′-biphenyl-4-yl)-N-methylacetamide] |  | IC50 (HSV-1 F; [1]): < 10 nM; IC50 (HSV-2 G; [2]): < 10 nM
24 | Cc1nc(N(C)C(=O)Cc2ccc(-n3cccn3)cc2)sc1S(N)(=O)=O [Example 126, N-[5-(Aminosulphonyl)-4-methyl-1,3-thiazol-2-yl]-N-methyl-2-[4-(1H-pyrazol-1-yl)phenyl]acetamide] |  | IC50 (HSV-1 F; [1]): 10 nM; IC50 (HSV-2 G; [2]): 100 nM

Continued, in another order:

Row | melting point [°C] | SMILES | also measured
25 | 128 | CNS(=O)(=O)c1sc(N(C)C(=O)Cc2ccc(-c3ccccc3Cl)cc2)nc1C | 
26 | 209 | Cc1nc(N(C)C(=O)Cc2ccc(-c3cccc(N)c3)cc2)sc1S(N)(=O)=O | 
27 | 167 | Cc1nc(N(C)C(=O)Cc2ccc(-c3ccccc3)cc2)sc1S(=O)(=O)NCCO | 
28 | 81 | Cc1nc(N(C)C(=O)Cc2ccc(-c3cccc([N+](=O)[O-])c3)cc2)sc1S(=O)(=O)N(C)C | 
29 | 184 | Cc1nc(N(C)C(=O)Cc2ccc(-c3ccccc3)cc2)sc1S(=O)(=O)N(C)C | 
30 | 129 | CONS(=O)(=O)c1sc(N(C)C(=O)Cc2ccc(-c3ccccc3)cc2)nc1C | 
31 | 105 to 106 | CCOCCNS(=O)(=O)c1sc(N(C)C(=O)Cc2ccc(-c3ccccc3)cc2)nc1C | 
32 | 170 | CNS(=O)(=O)c1sc(N(C)C(=O)Cc2ccc(-c3cc(C)cc(C)c3)cc2)nc1C | 
33 | 192 | CNS(=O)(=O)c1sc(N(C)C(=O)Cc2ccc(-c3cccc(C=O)c3)cc2)nc1C | 
34 | 193 | CNS(=O)(=O)c1sc(N(C)C(=O)Cc2ccc(-c3cccc(N)c3)cc2)nc1C | 
35 | 201 | CNS(=O)(=O)c1sc(N(C)C(=O)Cc2ccc(-c3cccc([N+](=O)[O-])c3)cc2)nc1C | 
36 | 156 | CNS(=O)(=O)c1sc(N(C)C(=O)Cc2ccc(-c3cccc(OC(F)(F)F)c3)cc2)nc1C | 
37 | 208 | Cc1nc(N(C)C(=O)Cc2ccc(-c3cccnc3)cc2)sc1S(N)(=O)=O | 
38 | 200 | CNS(=O)(=O)c1sc(N(C)C(=O)Cc2ccc(-c3cccnc3)cc2)nc1C | 
39 | 270 | CNS(=O)(=O)c1sc(N(C)C(=O)Cc2ccc(-c3cccnc3)cc2)nc1C.Cl | 
40 | 160 | CNS(=O)(=O)c1sc(N(C)C(=O)Cc2ccc(-c3ncccc3N)cc2)nc1C.Cl | 
41 | 152 | Cc1nc(N(C)C(=O)Cc2ccc(-c3cccc(N4CCCC4)c3)cc2)sc1S(N)(=O)=O | 
42 | 202 | Cc1nc(N(C)C(=O)Cc2ccc(-c3cccc([N+](=O)[O-])c3)cc2)sc1S(N)(=O)=O | 
43 | 231 | Cc1nc(N(C)C(=O)Cc2ccc(-c3cncc(C#N)c3)cc2)sc1S(N)(=O)=O | 
44 | 109 | CNS(=O)(=O)c1sc(N(C)C(=O)Cc2ccc(-c3ccc(OC(F)(F)F)cc3)cc2)nc1C | 
45 | 180 | CNS(=O)(=O)c1sc(N(C)C(=O)Cc2ccc(-c3ncccc3C(F)(F)F)cc2)nc1C | 
46 | 186 | CNS(=O)(=O)c1sc(N(C)C(=O)Cc2ccc(-c3cc(F)ccc3C)cc2)nc1C [Example 8] | IC50 (HSV-1 F; [1]): 100 nM; IC50 (HSV-2 G; [2]): 100 nM
